The results in this text go back to patent US20260191196A1, “COMPOSITIONS AND METHODS FOR IMPROVING SOIL MICROBIAL POPULATIONS” (SYNGENTA CROP PROTECTION AG, priority 2022, published 2026).

For one test, the system named is bacteria (16S) and fungi (ITS) communities. Briefly: Potato field trial: soil microbiome community and biodiversity. Format: in vivo, potato (Solanum tuberculosum L.).
Conditions: not given
How it is done: In this experiment, assuming that biodiversity can be measured by the taxonomic richness and abundance of each taxon, the differences between treatments are determined and their effect on populations and beneficial species over time is verified. This leads to testing two hypotheses. Firstly, there is an impact of cyclobutrifluram applications on microbial diversity. Secondly, the use of cyclobutrifluram improves beneficial microbial diversity over time. These hypotheses were tested in two potato farms in the USA.
The experiment was carried out in two potato (Solanum tuberculosum L.) fields located in two test locations in Louisiana, USA, described as locations A and B in Table 2. In each experimental field, three products were tested in an area of 10 m^2 (Table 3) and three replicates per product were established by complete block randomized. To evaluate the effects on the microbiome a “Check” plot (untreated) was established. In addition, fluopyram was employed as a comparative example. Fluopyram is a widely used fungicide and nematicide, and represents the industry standard herein.
To analyse the microbial biodiversity, three soil samples were taken per treatment and each sample consisted of soil collected from three different points within the plots. In this way, the effect of soil variability was minimized, since there were nine samples per treatment. […]
As set out above, to detect microbial community modifications in the soil microbiome associated with the cyclobutrifluram treatment, PCR amplification and successive high-throughput sequencing of bacterial and fungal taxonomical marker genes (the small-subunit ribosomal RNA gene (16S) and the ribosomal internal transcribed spacers (ITS) respectively) were performed on plant-associated soil samples. An exploratory data analysis was conducted to describe the microbial biodiversity and the behaviour of the percentage of the abundance of species under the evaluated factors. […]
On to `O=C(NCCc1ncc(C(F)(F)F)cc1Cl)c1ccccc1C(F)(F)F` [fluopyram], for which the “beneficial effect on soil microbiome” value is recorded as “did not show any beneficial effect”.

Still in this test, the particulars now being: 250 gai/ha.
For `O=C(NCCc1ncc(C(F)(F)F)cc1Cl)c1ccccc1C(F)(F)F` [fluopyram], the “impact on plant-pathogenic microbes” value is “showed an impact in promoting in particular plant-pathogenic microbes”.

The next test has as its system arbuscular mycorrhizae fungi. The experiment in a line: Mycorrhization in soybean roots after seed treatment. In kind it is in vivo. Conditions: Glycine max; soybean variety Toliman, seed treatment 0.15 mg ai/seed, mycorrhizal inoculant Blend A; relative to control; read-out: [%] arbuscular mycorrhizae fungi colonization vs. control. As for the experimental part:
Soybeans of variety Toliman were treated with 0.15 mg ai/seed of cyclobutrifluram and analogues, and planted in 1.5 L pots of 0-3 mm sieved soil. The seeds were inoculated with Bradyrhizobium japonicum using a commercially available product for soybeans.
In a first series, for each active ingredient tested, 15 replicate pots were sowed. In each pot, 3 seeds were sowed. After germination, 2 seedling was removed from each pot to a final number of 1 plant per pot. Each pot was inoculated with a small amount of a mycorrhizal inoculant (Blend A, commercially available from Symbiom, Czech Republic). The plants were grown in a greenhouse for 81 days under the following conditions: Humidity at 45-64%, Temperature of 22° C. to 24° C., in a 16/8 hour day/night cycle. In a further test series, Soybeans seeds treated as outlined above were then planted in 1 Lpots of 0-3 mm sieved soil. For each active ingredient, 8 replicate pots were sowed, whereby in each pot, 3 seeds were sowed. After germination, 2 seedlings were removed from each pot to a final number of 1 plant per pot.
The plants were then grown in a growth chamber for 42 days with the following conditions: Temperature of 20° C. and with a 12/12 hour day/night.
After harvest, the percent mycorrhization was quantified using the methods of McGonigle et al. (T. P. McGONIGLE, M. H. MILLER and D. G. EVANS et al., “A new method which gives an objective measure of colonization of roots by vesicular-arbuscular mycorrhizal fungi”. New Phytol. Vol. 115 (3): 495-501.).
With `O=C(N[C@H]1CC[C@H]1c1ccc(F)cc1F)c1nccnc1C(F)(F)F` [Compound A1], the response vs control in vivo at 0.15 mg/seed was found to be 61%. The same measure, in the same setting: the value for `O=C(N[C@@H]1CO[C@@H]1c1ccc(F)cc1F)c1nccnc1C(F)(F)F` (racemic) [Compound A5] was 81%; that for `O=C(N[C@@H]1CO[C@@H]1c1ccc(Cl)cc1Cl)c1nccnc1C(F)(F)F` (racemic) [Compound A6] was 97%. For `O=C(N[C@H]1CC[C@H]1c1ccc(F)cc1Cl)c1cccnc1C(F)(F)F` [Compound A2], the response vs control in vivo at 0.15 mg/seed was found to be 72%. As for `O=C(N[C@@H]1CO[C@@H]1c1ccc(Cl)cc1Cl)c1cccnc1C(F)(F)F` (racemic) [Compound A7], the response vs control in vivo at 0.15 mg/seed turned out to be 76%. With `O=C(N[C@H]1CC[C@H]1c1ccc(F)cc1F)c1ncccc1C(F)(F)F` [Compound A4], the response vs control in vivo at 0.15 mg/seed was 67%. In the case of `O=C(N[C@H]1CC[C@H]1c1ccc(F)cc1Cl)c1ncccc1C(F)(F)F` [Compound A3], the response vs control in vivo at 0.15 mg/seed was 84%.
